In the supplement of paper PMC11061612:

Experiments:
[1] = compound: CC(C)n1c(=O)n(C)c2cnc3cc(F)c(-c4ccc(OCCCN5CCCCC5)nc4)cc3c21 [AZD1390]; details: max 0.3 µM
In short: (§1)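 Plates with 1536 wells received cancer cell lines in 7.5 μl of DMEM/F12 or RPMI containing 10% FBS. After 24 hours at 37°C and 5% CO2, cells were dosed for 72 hours with final DMSO typically 0.2%, and viability was read by CellTiter-Glo 2.0 luminescence scaled between blank-well and DMSO-well means. The single-agent IC50 was taken from a logistic fit of the dose responses made with a non-linear mixed effects model, that logistic curve having two parameters.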

[2] = compound: CC(=O)c1c(C)c2cnc(Nc3ccc(N4CCNCC4)cn3)nc2n(C2CCCC2)c1=O [Palbociclib]; details: max 10 µM
In short: as §1

[3] = compound: Cc1nc(-c2cn3c(n2)-c2ccc(-c4cnn(C(C)(C)C(N)=O)c4)cc2OCC3)n(C(C)C)n1 [Taselisib]; details: max 10 µM
In short: as §1

[4] = compound: N#Cc1cnc(Nc2cc(NC[C@H]3CNCCO3)c(C(F)(F)F)cn2)cn1 [SRA737]; details: max 10 µM
In short: as §1

[5] = compound: CC1(C)CCC(CN2CCN(c3ccc(C(=O)NS(=O)(=O)c4ccc(NCC5CCOCC5)c([N+](=O)[O-])c4)c(Oc4cnc5[nH]ccc5c4)c3)CC2)=C(c2ccc(Cl)cc2)C1 [Venetoclax]; details: max 1 µM
In short: as §1

[6] = compound: COc1cc([C@@H]2c3cc4c(cc3[C@@H](O[C@@H]3O[C@@H]5CO[C@@H](C)O[C@H]5[C@H](O)[C@H]3O)[C@H]3COC(=O)[C@H]23)OCO4)cc(OC)c1O [Etoposide]; details: max 10 µM
In short: as §1

[7] = compound: C[C@@H](Oc1cc(-c2cnn(C3CCNCC3)c2)cnc1N)c1c(Cl)ccc(F)c1Cl [Crizotinib]; details: max 10 µM
In short: as §1

[8] = compound: CN(C)CCCOc1ccc(-c2ccc3ncc4c(c3c2)n(C2CCOCC2)c(=O)n4C)cn1 [AZD0156]; details: max 3 µM
In short: as §1

[9] = compound: COc1nnc2ccc(N3CCC(c4ccc(OCCN5CCN(C)C(=O)[C@H]5C)cc4)CC3)nn12 [AZD5153]; details: max 1 µM
In short: as §1

[10] = compound: C=CCn1c(=O)c2cnc(Nc3ccc(N4CCN(C)CC4)cc3)nc2n1-c1cccc(C(C)(C)O)n1 [AZD1775]; details: max 3 µM
In short: as §1

[11] = compound: Cc1c2c(nn1C)CSCc1cc(n(C)n1)CSc1cc(c3ccccc3c1)OCCCc1c(C(=O)O)n(C)c3c-2c(Cl)ccc13 [AZD5991]; details: max 1 µM
In short: as §1

[12] = compound: COc1cc(Nc2ncc3c(n2)-c2ccc(Cl)cc2C(c2c(F)cccc2OC)=NC3)ccc1C(=O)O [Alisertib]; details: max 10 µM
In short: as §1

[13] = compound: Cc1cc2ncnn2cc1Nc1ncc2c(n1)n(C1CCOCC1)c(=O)n2C [AZD7648]; details: max 10 µM
In short: as §1

[14] = compound: COc1cccc2c1C(=O)c1c(O)c3c(c(O)c1C2=O)C[C@@](O)(C(=O)CO)C[C@@H]3O[C@H]1C[C@H](N)[C@H](O)[C@H](C)O1 [Doxorubicin]; details: max 1 µM
In short: as §1

[15] = compound: C1CN(CCC1(C(=O)N[C@@H](CCO)C2=CC=C(C=C2)Cl)N)C3=NC=NC4=C3C=CN4 [AZD5363]; details: max 10 µM
In short: as §1

[16] = compound: O=C(c1cc(Cc2n[nH]c(=O)c3ccccc23)ccc1F)N1CCN(C(=O)C2CC2)CC1 [Olaparib]; details: max 10 µM
In short: as §1

[17] = compound: C[C@@H](c1ccc2nccn2c1)n1nnc2ncc(-c3cnn(C)c3)nc21 [Savolitinib]; details: max 1 µM
In short: as §1

[18] = compound: CC1=C(C(=CC=C1)Cl)NC(=O)C2=CN=C(S2)NC3=CC(=NC(=N3)C)N4CCN(CC4)CCO [Dasatinib]; details: max 2 µM
In short: as §1

[19] = compound: CC(=O)Nc1cccc(-n2c(=O)n(C3CC3)c(=O)c3c(Nc4ccc(I)cc4F)n(C)c(=O)c(C)c32)c1 [Trametinib]; details: max 1 µM
In short: as §1

[20] = compound: C[C@@H]1COCCN1C2=NC(=NC(=C2)C3(CC3)[S@](=N)(=O)C)C4=C5C=CNC5=NC=C4 [AZD6738]; details: max 10 µM
In short: as §1

[21] = compound: CN(CC[C@H](CSC1=CC=CC=C1)NC2=C(C=C(C=C2)S(=O)(=O)NC(=O)C3=CC=C(C=C3)N4CCC(CC4)[C@H](C5=CC=CC=C5C6=CC=C(C=C6)Cl)O)S(=O)(=O)C(F)(F)F)CCO [AZD4320]; details: max 1 µM
In short: as §1

[22] = compound: Cn1cnc2c(F)c(Nc3ccc(Br)cc3Cl)c(C(=O)NOCCO)cc21 [Selumetinib]; details: max 10 µM
In short: as §1

[23] = compound: CCc1c2c(nc3ccc(O)cc13)-c1cc3c(c(=O)n1C2)COC(=O)[C@]3(O)CC [SN-38]; details: max 0.3 µM
In short: as §1

[24] = compound: CS(=O)(=O)CCNCc1ccc(-c2ccc3ncnc(Nc4ccc(OCc5cccc(F)c5)c(Cl)c4)c3c2)o1 [Lapatinib]; details: max 10 µM
In short: as §1

[25] = compound: O=C(Nc1ccc2[nH]nc(-c3ccncc3)c2c1)[C@@H]1CCN(CC(=O)N2CCN(c3ccc(-c4ncccn4)cc3)CC2)C1; details: max 5 µM
In short: as §1

[26] = compound: CC(=O)O[C@H]1C(=O)[C@@]2(C)[C@H]([C@H](OC(=O)c3ccccc3)[C@]3(O)C[C@H](OC(=O)[C@H](O)[C@@H](NC(=O)c4ccccc4)c4ccccc4)C(C)=C1C3(C)C)[C@]1(OC(C)=O)CO[C@@H]1C[C@@H]2O [Paclitaxel]; details: max 3 µM
In short: as §1

[27] = compound: O=c1[nH]cc(F)c(=O)[nH]1 [5-Fluorouracil]; details: max 20 µM
In short: as §1

[28] = compound: C[C@@H](Nc1cc(F)cc(F)c1)c1cc(C(=O)N(C)C)cc2c(=O)cc(N3CCOCC3)oc12 [AZD8186]; details: max 10 µM
In short: as §1

[29] = compound: NC1(c2ccc(-c3nc4ccn5c(=O)[nH]nc5c4cc3-c3ccccc3)cc2)CCC1 [MK-2206]; details: max 10 µM
In short: as §1

[30] = compound: Nc1ccn([C@@H]2O[C@H](CO)[C@@H](O)C2(F)F)c(=O)n1 [Gemcitabine]; details: max 0.3 µM
In short: as §1

[31] = compound: COc1cc2ncnc(Nc3ccc(F)c(Cl)c3)c2cc1OCCCN1CCOCC1 [Gefitinib]; details: max 10 µM
In short: as §1

[32] = compound: C1CC(C1)(C(=O)[O-])C(=O)[O-].N.N.[Pt+2] [Carboplatin]; details: max 10 µM
In short: as §1

[33] = compound: CC1=CN2[C@@H](C1)C=NC3=CC(=C(C=C3C2=O)OC)OCCCCCOC4=C(C=C5C(=C4)N=C[C@@H]6CC(=CN6C5=O)C)OC [SG3199]; details: max 0.001 µM
In short: as §1

[34] = compound: CCN(CCO)CCCOc1ccc2c(Nc3cc(CC(=O)Nc4cccc(F)c4)[nH]n3)ncnc2c1 [AZD2811]; details: max 1 µM
In short: as §1

[35] = compound: COc1cccc(OCCCN)c1-c1cc(Nc2cnc(C#N)cn2)n[nH]1 [Prexasertib]; details: max 1 µM
In short: as §1

Cell Line	IC50, cell viability 72 h [1] [nM]	IC50, cell viability 72 h [2] [µM]	IC50, cell viability 72 h [3] [µM]	IC50, cell viability 72 h [4] [µM]	IC50, cell viability 72 h [5] [nM]	IC50, cell viability 72 h [6] [µM]	IC50, cell viability 72 h [7] [µM]	IC50, cell viability 72 h [8] [nM]	IC50, cell viability 72 h [9] [nM]	IC50, cell viability 72 h [10] [nM]	IC50, cell viability 72 h [11] [nM]	IC50, cell viability 72 h [12] [µM]	IC50, cell viability 72 h [13] [µM]	IC50, cell viability 72 h [14] [nM]	IC50, cell viability 72 h [15] [µM]	IC50, cell viability 72 h [16] [µM]	IC50, cell viability 72 h [17] [nM]	IC50, cell viability 72 h [18] [nM]	IC50, cell viability 72 h [19] [nM]	IC50, cell viability 72 h [20] [µM]	IC50, cell viability 72 h [21] [nM]	IC50, cell viability 72 h [22] [µM]	IC50, cell viability 72 h [23] [nM]	IC50, cell viability 72 h [24] [µM]	IC50, cell viability 72 h [25] [µM]	IC50, cell viability 72 h [26] [nM]	IC50, cell viability 72 h [27] [µM]	IC50, cell viability 72 h [28] [µM]	IC50, cell viability 72 h [29] [µM]	IC50, cell viability 72 h [30] [nM]	IC50, cell viability 72 h [31] [µM]	IC50, cell viability 72 h [32] [µM]	IC50, cell viability 72 h [33] [nM]	IC50, cell viability 72 h [34] [nM]	IC50, cell viability 72 h [35] [nM]
ACHN (Kidney Carcinoma)	> 300	4.94	6.33	1.58	> 1000	5.5	> 10	> 3000	623	116	> 1000	9.51	> 10	264	> 10	> 10	> 1000	179	> 1000	0.97	> 1000	> 10	12.7	8.52	> 5	461	> 20	> 10	> 10	20.1	3.43	> 10	> 1	> 1000	10.8
AMO-1 (Plasma Cell Myeloma)	> 300	> 10	3.41	2.01	> 1000	1.68	3	> 3000	36.6	633	18.6	0.192	> 10	169	6.03	> 10	> 1000	> 2000	> 1000	3.18	> 1000	> 10	18.4	6.71	> 5	< 3	> 20	> 10	1.15	15.3	> 10	> 10	> 1	> 1000	8.82
BT-549 (Breast Carcinoma)	> 300	> 10	> 10	> 10	> 1000	9.22	> 10	> 3000	531	2520	> 1000	> 10	> 10	> 1000	> 10	> 10	> 1000	> 2000	> 1000	> 10	> 1000	> 10	171	> 10	> 5	25.3	> 20	> 10	> 10	> 300	> 10	> 10	> 1	> 1000	592
Ca9-22 (Head and Neck Carcinoma)	> 300	> 10	1.37	> 10	> 1000	> 10	9.4	> 3000	350	714	> 1000	7.14	> 10	931	> 10	> 10	> 1000	229	657	2.37	> 1000	> 10	10.5	2.14	4.67	7.45	> 20	> 10	> 10	73.2	3.84	> 10	> 1	> 1000	31.3
Caov-4 (Ovarian Carcinoma)	> 300	> 10	> 10	4.02	> 1000	6.04	> 10	> 3000	719	816	993	> 10	> 10	253	> 10	> 10	> 1000	> 2000	108	3.19	> 1000	> 10	11.6	> 10	3.33	545	> 20	> 10	9.35	78.5	> 10	> 10	> 1	> 1000	12.6
